{"source": "patent US4824937A", "about": "“Synthetic natriuretic peptides” (501 Advanced Peptide Development, Ltd., priority 1986, dated 1989)", "tested_on": "rabbit thoracic aorta strips", "assay": "Vasorelaxant activity against noradrenaline-induced tension in aorta strips", "conditions": "for Relative Potency: potency of BG-3009 taken arbitrarily as 100; for Ratio (noradrenaline EC50 in the presence of compound divided by EC50 with noradrenaline alone): added 5 min before noradrenaline", "protocol": "The vasorelaxant activities of the SNP of this invention are determined in vitro using freshly prepared rabbit thoracic aorta strips, helically cut according to the method of Furchgott et al., 1953 J. Pharmacol. Exp. Therap. 108, 129. One end of each strip is attached to a holding rod, the other end is equipped with a silk thread which is kept under a tension of about 5 g, and the complete assembly is kept over night at 4° C. in oxygenated Krebs solution. On the day of the experiment each strip is set up in a 10 ml bath of oxygenated (5% CO2) Krebs solution at 37° C. and the thread is attached to an isometric force transducer (Grass Instruments Model FT.03) connected to a polygraph (Grass Instruments Model 5). A resting tension of 5 g is applied to each strip and is readjusted until a stable resting tension is attained (45-60 minutes). The strips are then challenged repeatedly with the same dose of noradrenaline to ensure that the induced increase in tension is uniform. The stock solution of noradrenaline bitartrate (Sigma Chemical Co.) is made up in 0.001N HCl, and dilutions are freshly prepared in deionized water containing 0.0001M ascorbic acid and are kept protected from light during the experiments. In each experiment two cumulative full dose-response determinations to noradrenaline alone are carried out consecutively on one strip (time control). On the other strips dose-response determinations are done with noradrenaline alone, and then repeated five minutes after having added the compound to be tested to concentrations of 2, 5, 50, and 500 ng/ml, respectively. The tension elicited by each concentration of noradrenaline is expressed as a percentage of the maximal response obtained with noradrenaline, and the concentration of noradrenaline producing a tension equal to 50% of the maximal response is calculated (EC50). The same calculations are also carried out with the results obtained in the presence of the various concentrations of the compound to be tested, and the EC50 thus obtained is divided by the EC50 obtained in the absence of said compound, to arrive at a ration which is clear indication of the potency of the respective compound.\nThe SNP of formula 1 in which R^1 is H-D-Tyr, R^2 is Ile, and R^3 is OH, identified by the code number 05-22-0318 is tested for its vasorelaxant activities and compared with a known ANP composed of 28 amino acid residues and identified by the code number BG-3009. The test method is described above in some detail. Two rabbits are sacrificed and the thoracic aorta prepared from each animal is helically cut so as to obtain five strips from each aorta. One strip from each aorta is used for time control and is exposed to the full range of concentrations of noradrenaline alone at the beginning and at the end of the experiment, and the concentrations of noradrenaline giving 50% of the maximal response are calculated (EC50). […] One strip from each of the remaining two pairs of strips from each aorta is then exposed to the full range of concentrations of noradrenaline alone as described above, and the responses are noted. The other strip from the same pair is first exposed to concentrations of 2, 5, 50, and 500 ng/ml of the compound to be tested, respectively, and five minutes after having added the above concentrations of the compound to be tested the strip is challenged with noradrenaline at increasing concentrations and the responses obtained are noted again. The EC50 obtained in the presence of the respective concentration of the compound to be tested is then divided by the EC50 obtained in the absence of said compound with noradrenaline alone, and the ratio of the two EC50's is calculated to give a clear measure of the vasorelaxant properties of said compound. Furthermore, when taking the potency of the reference compound having the code number BG-3009 arbitrarily as 100 the relative potencies of the above SNP (code No. 05-22-0318) at the respective levels of concentration are also calculated. […]", "note": "Ends that are not written are not given here."}
{"substance": "BG-3009: known ANP composed of 28 amino acid residues, identical with the ANP described by Flynn et al. (SLRRSSCFGGRIDRIGAQSGLGCNSFRY; not fully specified; ends and bridges not checked; UniProt P01161 123-150, looked up)", "values": [{"measurement": "Relative Potency", "setting": "2 ng/ml", "value": 100}, {"measurement": "Relative Potency", "setting": "5 ng/ml", "value": 100}, {"measurement": "Relative Potency", "setting": "50 ng/ml", "value": 100}, {"measurement": "Relative Potency", "setting": "500 ng/ml", "value": 100}, {"measurement": "Ratio (noradrenaline EC50 in the presence of compound divided by EC50 with noradrenaline alone)", "setting": "compound concentration 2 ng/ml", "value": 2.9}, {"measurement": "Ratio (noradrenaline EC50 in the presence of compound divided by EC50 with noradrenaline alone)", "setting": "compound concentration 5 ng/ml", "value": 3.8}, {"measurement": "Ratio (noradrenaline EC50 in the presence of compound divided by EC50 with noradrenaline alone)", "setting": "compound concentration 50 ng/ml", "value": 25.8}, {"measurement": "Ratio (noradrenaline EC50 in the presence of compound divided by EC50 with noradrenaline alone)", "setting": "compound concentration 500 ng/ml", "value": 26.1}]}
